Experimental data: patent publication US12492173B2, “Herbicidal substituted N-tetrazolyl aryl carboxamides” (Bayer Aktiengesellschaft, priority 2019, dated 2025)

Key:
Type in all cases: in vivo
[1] = tested on: Digitaria sanguinalis; experiment: Pre-emergence herbicidal action, DIGSA; details: dosage 320 g/ha, scored visually after 3 weeks vs untreated controls (100% = plants have died)
Text: (§1) 1. Pre-Emergence Herbicidal Action Against Harmful Plants Seeds of monocotyledonous and dicotyledonous weed plants and crop plants are laid out in sandy loam soil in wood-fiber pots and covered with soil. The compounds of the invention, formulated in the form of wettable powders (WP) or as emulsion concentrates (EC), are then applied to the surface of the covering soil in the form of an aqueous suspension or emulsion at a water application rate equating to 600 to 800 l/ha, with addition of 0.2% wetting agent. After the treatment, the pots are placed in a greenhouse and kept under good growth conditions for the trial plants. The damage to the test plants is scored visually after a test period of 3 weeks by comparison with untreated controls (herbicidal activity in percent (%): 100% activity=the plants have died, 0% activity=like control plants). […] The tables below illustrate, in an exemplary manner, the […] herbicidal action of the compounds according to the invention, the herbicidal activity being stated in percent. [table] In the experiments that follow, herbicidal action of numerous inventive compounds and the known compounds that are structurally closest from D1 (WO 2012/028579 A1) and D2 (WO 2018/202535 A1) were compared under the above-specified conditions by the pre-emergence and post-emergence method. The example numbers given in the tables relate to the compounds disclosed in the respective documents. In addition to the compounds disclosed in D1 and D2, the following compounds V-1 to V-14 that are encompassed by D1 or D2 but are not compounds specified therein were used in the comparative experiments: • V-1: 2-(methylsulfanyl)-3-(methylsulfinyl)-N-(1-methyl-1H-tetrazol-5-yl)-4-(trifluoromethyl)benzamide • V-2: 2-(methylsulfanyl)-3-(methylsulfonyl)-N-(1-methyl-1H-tetrazol-5-yl)-4-(trifluoromethyl)benzamide • V-3: 2,3-bis(ethylsulfanyl)-N-(1-methyl-1H-tetrazol-5-yl)-4-(trifluoromethyl)benzamide • V-4: 2-chloro-3-(ethylsulfanyl)-N-(1-methyl-1H-tetrazol-5-yl)-4-(trifluoromethyl)benzamide • V-5: 2-chloro-4-iodo-3-(methylsulfanyl)-N-(1-methyl-1H-tetrazol-5-yl)benzamide • V-6: 2-chloro-4-iodo-3-(methylsulfinyl)-N-(1-methyl-1H-tetrazol-5-yl)benzamide • V-7: 2-chloro-4-iodo-3-(methylsulfonyl)-N-(1-methyl-1H-tetrazol-5-yl)benzamide • V-8: 2-bromo-3-(methylsulfanyl)-N-(1-methyl-1H-tetrazol-5-yl)-4-(trifluoromethyl)benzamide • V-9: 2-bromo-3-(methylsulfinyl)-N-(1-methyl-1H-tetrazol-5-yl)-4-(trifluoromethyl)benzamide • V-10: 2-bromo-3-(methylsulfonyl)-N-(1-methyl-1H-tetrazol-5-yl)-4-(trifluoromethyl)benzamide • V-11: 2-bromo-3-(ethylsulfanyl)-N-(1-methyl-1H-tetrazol-5-yl)-4-(trifluoromethyl)benzamide • V-12: 2-bromo-3-(ethylsulfinyl)-N-(1-methyl-1H-tetrazol-5-yl)-4-(trifluoromethyl)benzamide • V-13: 2-bromo-3-(ethylsulfonyl)-N-(1-methyl-1-1H-tetrazol-5-yl)-4-(trifluoromethyl)benzamide • V-14: 2-cyclopropyl-3-(ethylsulfanyl)-N-(1-methyl-1H-tetrazol-5-yl)-4-(trifluoromethyl)benzamide Herbicidal Pre-Emergence Action: […]

[2] = tested on: Hordeum murinum; experiment: Post-emergence herbicidal action, HORMU; design: key: % herbicidal action: 100 = plants died, 0 = like control; details: post-emergence, dosage 80 g/ha
Experimental: (§2) [table] 2. Post-Emergence Herbicidal Action Against Harmful Plants Seeds of monocotyledonous and dicotyledonous weed and crop plants are laid out in sandy loam soil in wood-fiber pots, covered with soil and cultivated in a greenhouse under good growth conditions. 2 to 3 weeks after sowing, the test plants are treated at the one-leaf stage. The compounds of the invention, formulated in the form of wettable powders (WP) or as emulsion concentrates (EC), are then sprayed onto the green parts of the plants in the form of an aqueous suspension or emulsion at a water application rate equating to 600 to 800 l/ha, with addition of 0.2% wetting agent. After the test plants have been left to stand in the greenhouse under optimal growth conditions for about 3 weeks, the action of the preparations is assessed visually in comparison to untreated controls (herbicidal action in percent (%): 100% activity=the plants have died, 0% activity=like control plants). […] The tables below illustrate, in an exemplary manner, the post-emergence herbicidal action of the compounds according to the invention, the herbicidal activity being stated in percent. In the experiments that follow, herbicidal action of numerous inventive compounds and the known compounds that are structurally closest from D1 (WO 2012/028579 A1) and D2 (WO 2018/202535 A1) were compared under the above-specified conditions by the pre-emergence and post-emergence method. The example numbers given in the tables relate to the compounds disclosed in the respective documents. In addition to the compounds disclosed in D1 and D2, the following compounds V-1 to V-14 that are encompassed by D1 or D2 but are not compounds specified therein were used in the comparative experiments: • V-1: 2-(methylsulfanyl)-3-(methylsulfinyl)-N-(1-methyl-1H-tetrazol-5-yl)-4-(trifluoromethyl)benzamide • V-2: 2-(methylsulfanyl)-3-(methylsulfonyl)-N-(1-methyl-1H-tetrazol-5-yl)-4-(trifluoromethyl)benzamide • V-3: 2,3-bis(ethylsulfanyl)-N-(1-methyl-1H-tetrazol-5-yl)-4-(trifluoromethyl)benzamide • V-4: 2-chloro-3-(ethylsulfanyl)-N-(1-methyl-1H-tetrazol-5-yl)-4-(trifluoromethyl)benzamide • V-5: 2-chloro-4-iodo-3-(methylsulfanyl)-N-(1-methyl-1H-tetrazol-5-yl)benzamide • V-6: 2-chloro-4-iodo-3-(methylsulfinyl)-N-(1-methyl-1H-tetrazol-5-yl)benzamide • V-7: 2-chloro-4-iodo-3-(methylsulfonyl)-N-(1-methyl-1H-tetrazol-5-yl)benzamide • V-8: 2-bromo-3-(methylsulfanyl)-N-(1-methyl-1H-tetrazol-5-yl)-4-(trifluoromethyl)benzamide • V-9: 2-bromo-3-(methylsulfinyl)-N-(1-methyl-1H-tetrazol-5-yl)-4-(trifluoromethyl)benzamide • V-10: 2-bromo-3-(methylsulfonyl)-N-(1-methyl-1H-tetrazol-5-yl)-4-(trifluoromethyl)benzamide • V-11: 2-bromo-3-(ethylsulfanyl)-N-(1-methyl-1H-tetrazol-5-yl)-4-(trifluoromethyl)benzamide • V-12: 2-bromo-3-(ethylsulfinyl)-N-(1-methyl-1H-tetrazol-5-yl)-4-(trifluoromethyl)benzamide • V-13: 2-bromo-3-(ethylsulfonyl)-N-(1-methyl-1-1H-tetrazol-5-yl)-4-(trifluoromethyl)benzamide • V-14: 2-cyclopropyl-3-(ethylsulfanyl)-N-(1-methyl-1H-tetrazol-5-yl)-4-(trifluoromethyl)benzamide Herbicidal Pre-Emergence Action: […]

[3] = tested on: Digitaria sanguinalis; experiment: Post-emergence herbicidal action, DIGSA; design: key: % herbicidal action: 100 = plants died, 0 = like control; details: post-emergence, dosage 80 g/ha
Experimental: as §2

[4] = tested on: Lolium rigidum; experiment: Post-emergence herbicidal action, LOLRI; details: dosage 80 g/ha
Experimental: as §2

[5] = tested on: Alopecurus myosuroides; experiment: Pre-emergence herbicidal action, ALOMY; design: key: % activity: 100 = plants have died, 0 = like control plants; details: comparative experiment
Text: as §1

[6] = tested on: Lolium multiflorum; experiment: Post-emergence herbicidal action, LOLMU; design: key: % herbicidal action: 100 = plants died, 0 = like control; details: post-emergence; for Herbicidal action against LOLMU: comparative experiment; for herbicidal action LOLMU: dosage 80 g/ha
Experimental: as §2

[7] = tested on: Cyperus esculentus; experiment: Pre-emergence herbicidal action, CYPES; design: key: % activity: 100 = plants have died, 0 = like control plants; details: comparative experiment
Procedure, shortened: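 Seeds were covered with sandy loam soil, then received a pre-emergence surface spray of the WP- or EC-formulated compound. After 3 weeks under good greenhouse growth conditions, damage was scored visually in percent.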

Row | SMILES | Herbicidal action against ALOMY ([5]; 20 g of a.i./ha) | Herbicidal action against LOLMU ([6]; 20 g of a.i./ha) | Herbicidal action against ALOMY ([5]; 80 g of a.i./ha) | herbicidal action LOLMU [6] [%] | further results
1 | Cn1nnnc1NC(=O)c1ccc(I)c(C[S+](C)[O-])c1Cl (racemic) [Example 1-363] | 50 | – | – | – | herbicidal activity DIGSA [1]: 100%; herbicidal action HORMU [2]: 90%; herbicidal action DIGSA [3]: 100%; herbicidal action LOLRI [4]: 80%
2 | CCS(=O)(=O)c1c(C(F)(F)F)ccc(C(=O)Nc2nnnn2C)c1Br [Example V-13, 2-bromo-3-(ethylsulfonyl)-N-(1-methyl-1-1H-tetrazol-5-yl)-4-(trifluoromethyl)benzamide, reference compound] | – | 0 | 0 | – | –
3 | CCSCc1c(C(F)(F)F)ccc(C(=O)Nc2nnnn2C)c1Cl [Example 1-299] | 80 | – | – | 90 | Herbicidal action against LOLMU ([6]; 5 g of a.i./ha): 70; Herbicidal action against CYPES ([7]; 20 g of a.i./ha): 90
4 | CCS(=O)(=O)Cc1c(C(F)(F)F)ccc(C(=O)Nc2nnnn2C)c1Br [Example 1-385] | – | 50 | 100 | 80 | –
5 | CC[S+]([O-])Cc1c(C(F)(F)F)ccc(C(=O)Nc2nnnn2C)c1Br (racemic) [Example 1-384] | – | – | 100 | 90 | Herbicidal action against CYPES ([7]; 80 g of a.i./ha): 100
